Columns and labels:
[1] = molecular target: T1, human GAL1 receptor (Homo sapiens, UniProt P47211); test: Radioligand binding at cloned human GAL1 receptor; conditions: pyrimidines, Tables 1-3, read-out: Ki (nM) GalR1
T1 construct: expressed in transfected cells
T1 sequence (P47211 1-349): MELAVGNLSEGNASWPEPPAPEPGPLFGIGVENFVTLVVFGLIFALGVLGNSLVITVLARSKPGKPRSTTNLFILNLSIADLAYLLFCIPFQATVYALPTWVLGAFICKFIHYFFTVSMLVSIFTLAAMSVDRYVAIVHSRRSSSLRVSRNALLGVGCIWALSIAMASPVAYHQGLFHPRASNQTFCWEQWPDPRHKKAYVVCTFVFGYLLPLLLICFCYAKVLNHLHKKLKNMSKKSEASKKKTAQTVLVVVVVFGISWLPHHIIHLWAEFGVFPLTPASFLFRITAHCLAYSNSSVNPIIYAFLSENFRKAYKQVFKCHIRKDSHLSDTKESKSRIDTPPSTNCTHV
Procedure: (§1) The present invention provides for a method of determining the binding affinity of a GAL3 antagonist, wherein the GAL3 antagonist is dissolved in a “suitable solvent”. A “suitable solvent” means one which permits the measurement of binding affinity of the GAL3 antagonist to the human GAL3 receptor at concentrations less than 1 μM, preferably less than 100 nM. Examples of solvents include, but are not limited to, DMSO, ethanol, N,N-dimethylacetamide, or water. For indolones, the preferred solvent is 3% DMSO (final concentration in the assay). For pyrimidines, the preferred solvent is 1% ethanol/0.09% polypuronic acid F-127 (final concentration in the assay). For any other type of compounds, the preferred solvent is the solvent which permits the measurement of binding affinity of a GAL3 antagonist at the lowest concentration. Once a suitable solvent is ascertained for the binding assay of the human GAL3 receptor, the same solvent is used in assays to determine the binding affinity for instance, at the GAL1 receptor.
(§2) The binding properties of the pyrimidines of the present invention were evaluated at the cloned human galanin receptors, GAL1, GAL2, and GAL3, using protocols described herein.
(§3) The binding properties of the indolones of the present invention were evaluated at the cloned human galanin receptors, GAL1, GAL2, and GAL3, using protocols described herein.
(§4) LM(tk-) cells were stably transfected with the human GAL1 or GAL3 receptor. CHO cells were stably transfected with the human GAL2 receptor.
(§5) cDNAs for the human and rat GAL1, and human and rat GAL3 receptors were transfected with a G-418 resistant gene into the mouse fibroblast LM(tk-) cell line by a calcium phosphate transfection method (Cullen, 1967). Stably transfected cells were selected with G-418. Human and rat GAL2 receptors were similarly transfected into CHO cells.
(§6) Membranes were harvested from stably transfected LM(tk-) cells. Adherent cells were washed twice in ice-cold phosphate buffered saline (138 mM NaCl, 8.1 mM Na2HPO4, 2.5 mM KCl, 1.2 mM KH2PO4, 0.9 mM CaCl2, 0.5 mM MgCl2, pH 7.4) and lysed by sonication in ice-cold sonication buffer (20 mM Tris-HCl, 5 mM EDTA, pH 7.7). Large particles and debris were cleared by low speed centrifugation (200×g, 5 min, 4° C.). Membranes were collected from the supernatant fraction by centrifugation (32,000×g, 18 min, 4° C.), washed with ice-cold hypotonic buffer, and collected again by centrifugation (32,000×g, 18 min, 4° C.). The final membrane pellet was resuspended by sonication into a small volume of ice-cold binding buffer (−1 ml for every 5 plates: 10 mM NaCl, 20 mM HEPES, 0.22 mM KH2PO4, 1.26 mM CaCl2, 0.81 mM MgSO4, pH 7.4). Protein concentration was measured by the Bradford method (Bradford, 1976) using Bio-Rad Reagent, with bovine serum albumin as a standard. Membranes were held on ice for up to one hour and used fresh, or flash frozen and stored in liquid nitrogen. Membranes were prepared similarly from CHO cells.
(§7) Galanin Receptors: Binding assays were performed according to the following published methods: human GAL3 (PCT International Publication No. WO 98/15570), human GAL1 (PCT International Publication No. WO 95/2260) human GAL2 (PCT International Publication No. WO 97/26853).
(§8) Binding data were analyzed using nonlinear regression and statistical techniques available in the GraphPAD Prism package (San Diego, Calif.). Enzymatic assay data were derived from a standard curve of reference compound data.

[2] = molecular target: T2, human GAL2 receptor (Homo sapiens, UniProt O43603); test: Radioligand binding at cloned human GAL2 receptor; conditions: pyrimidines, Tables 1-3, read-out: Ki (nM) GalR2
T2 construct: expressed in transfected cells
T2 sequence (O43603 1-387): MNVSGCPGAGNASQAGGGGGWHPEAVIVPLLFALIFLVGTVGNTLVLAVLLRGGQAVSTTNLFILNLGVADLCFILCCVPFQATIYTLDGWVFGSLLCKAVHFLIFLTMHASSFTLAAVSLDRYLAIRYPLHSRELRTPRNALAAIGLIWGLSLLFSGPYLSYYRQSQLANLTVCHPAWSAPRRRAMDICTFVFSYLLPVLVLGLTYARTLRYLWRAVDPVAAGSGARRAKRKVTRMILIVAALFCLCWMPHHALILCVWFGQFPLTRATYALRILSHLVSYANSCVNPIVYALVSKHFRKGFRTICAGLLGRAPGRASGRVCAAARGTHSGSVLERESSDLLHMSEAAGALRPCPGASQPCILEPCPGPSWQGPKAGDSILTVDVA
Procedure: as §1, §2, §3, §4, §5, §6, §7, §8

[3] = molecular target: T3, human GAL3 receptor (Homo sapiens, UniProt O60755); test: Radioligand binding at cloned human GAL3 receptor; conditions: cloned human GAL3 receptor; pyrimidines, Table 3a; read-out: Ki (nM) Gal3
T3 construct: expressed in transfected cells
T3 sequence (O60755 1-368): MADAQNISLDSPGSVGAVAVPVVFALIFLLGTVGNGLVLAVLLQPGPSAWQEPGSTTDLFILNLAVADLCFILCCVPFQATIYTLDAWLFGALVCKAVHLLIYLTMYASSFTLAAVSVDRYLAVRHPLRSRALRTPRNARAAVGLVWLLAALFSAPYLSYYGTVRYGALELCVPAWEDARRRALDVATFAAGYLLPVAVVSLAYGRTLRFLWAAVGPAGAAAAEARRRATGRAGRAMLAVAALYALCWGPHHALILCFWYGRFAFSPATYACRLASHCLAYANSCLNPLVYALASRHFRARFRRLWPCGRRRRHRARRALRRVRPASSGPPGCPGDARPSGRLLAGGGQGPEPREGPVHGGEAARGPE
Procedure: as §1, §2, §3, §4, §5, §6, §7, §8

Structure (SMILES) | Ki [1] [nM] | Ki [2] [nM] | Ki [3] [nM]
CN(C)c1cc(N[C@@H]2C[C@H]3CC[C@]2(C)C3(C)C)nc(N2CCN(Cc3ccccc3)CC2)n1 [Example 153] | – | – | 55
COCCN(CCc1c[nH]c2ccccc12)c1nc(Nc2ccc(C)cc2)cc(N2CCCCC2)n1 [Example 19] | > 5000 | – | –
Cc1cccc(Nc2cc(N(C)C)nc(Nc3ccccc3)n2)c1 [Example 52] | > 5000 | > 5000 | –
Cc1ccc(Nc2cc(N3CCCCC3)nc(N3CCCc4ccccc43)n2)cc1 [Example 40] | > 5000 | – | –
Cc1ccc(Nc2cc(N(C)C)nc(N3CCC(c4ccccc4)CC3)n2)cc1 [Example 81] | > 5000 | – | –
Cc1ccc(Nc2cc(N(C)C)nc(N3CCC(O)(c4ccccc4)CC3)n2)cc1 [Example 80] | > 5000 | – | –
COc1ccc2[nH]cc(CCNc3nc(Nc4ccc(C)cc4)cc(N4CCCCC4)n3)c2c1 [Example 9] | > 5000 | – | –
CN(C)c1cc(Nc2cccc(F)c2)nc(Nc2ccccc2)n1 [Example 57] | > 5000 | > 5000 | –
Cc1ccc(Nc2cc(N3CCCCC3)nc(N3CCN(Cc4ccccc4)CC3)n2)cc1 [Example 23] | > 5000 | > 5000 | –
CN(C)c1cc(Nc2ccc(Oc3ccccc3)cc2)nc(Nc2ccccc2)n1 [Example 64] | > 5000 | > 5000 | –
Cc1ccc(Nc2cc(N3CCCCC3)nc(N3CCN(c4ncccc4C)CC3)n2)cc1 [Example 31] | > 5000 | – | –
Cc1ccc(Nc2cc(N(C)C)nc(Nc3ccccc3)n2)cc1 [Example 54] | > 5000 | > 5000 | –
CN(CCc1c[nH]c2ccccc12)c1nc(Nc2cccc(F)c2)cc(N2CCCCC2)n1 [Example 14] | > 5000 | – | –
Cc1ccc(Nc2cc(N3CCCCC3)nc(NCCc3c[nH]c4ccccc34)n2)cc1 [Example 10] | > 5000 | – | –
Cc1ccc(Nc2cc(N(C)C)nc(N3CCN(c4cccc(C)c4)CC3)n2)cc1 [Example 86] | > 5000 | > 5000 | –
Cc1ccc(Nc2cc(N(C)C)nc(N(C)C3CCCCC3)n2)cc1 [Example 73] | > 5000 | – | –

Structure (SMILES) | Ki [1] [nM] | Ki [2] [nM] | Ki [3] [nM]
Cc1ccc(Nc2cc(N(C)C)nc(N3CCN(c4ccc(C)cc4)CC3)n2)cc1 [Example 87] | > 5000 | – | –
Cc1ccc(Nc2cc(N3CCCCC3)nc(N3CCC(O)(c4ccccc4)CC3)n2)cc1 [Example 44] | > 5000 | – | –
Cc1ccc(Nc2cc(N(C)C)nc(N3CCN(S(=O)(=O)c4ccc(C)cc4)CC3)n2)cc1 [Example 84] | > 5000 | > 5000 | –
Cc1ccc(Nc2cc(N3CCCCC3)nc(N3CCc4ccccc43)n2)cc1 [Example 39] | > 5000 | > 5000 | –
Cc1ccc(Nc2cc(N3CCCCC3)nc(Nc3ccc(C)cc3)n2)cc1 [Example 4] | > 5000 | > 5000 | –
Cc1ccc(Nc2cc(N3CCCCC3)nc(N3CCC(c4ccccc4)CC3)n2)cc1 [Example 24] | > 5000 | – | –
Cc1ccc(Nc2cc(N3CCCCC3)nc(N3CCN(c4cc(C(F)(F)F)ccn4)CC3)n2)cc1 [Example 32] | > 5000 | – | –
Cc1ccc(Nc2cc(N3CCCCC3)nc(N3CCN(c4cccc(C(F)(F)F)n4)CC3)n2)cc1 [Example 33] | > 5000 | > 5000 | –
Cc1ccc(Nc2cc(N3CCCCC3)nc(Nc3ccccc3)n2)cc1 [Example 3] | > 5000 | > 5000 | –
Cc1ccc(Nc2cc(N(C)C)nc(N3CCN(c4ccccc4C)CC3)n2)cc1 [Example 85] | > 5000 | – | –
CN(C)c1cc(Nc2ccc3ccccc3c2)nc(Nc2ccccc2)n1 [Example 65] | > 5000 | > 5000 | –
COCCN(CCOC)c1nc(Nc2ccc(C)cc2)cc(N2CCCCC2)n1 [Example 45] | > 5000 | > 5000 | –
CN(C)c1cc(NC2CCCCC2)nc(Nc2ccccc2)n1 [Example 66] | > 5000 | > 5000 | –
Cc1ccc(Nc2cc(N(C)C)nc(Nc3ccc(Cl)c(Cl)c3)n2)cc1 [Example 55] | > 5000 | > 5000 | –
Cc1ccc(Nc2cc(N3CCCCC3)nc(NCCc3c[nH]c4ccc(C)cc34)n2)cc1 [Example 8] | > 5000 | – | –

Further lines, with some results ahead:

Ki [1] [nM] | Ki [2] [nM] | Structure (SMILES) | Ki [3] [nM]
> 5000 | > 5000 | CN(C)c1cc(Nc2ccc(Br)cc2)nc(Nc2ccccc2)n1 [Example 59] | –
> 5000 | > 5000 | Cc1ccc(Nc2cc(N(C)C)nc(Nc3ccc(C)cc3)n2)cc1 [Example 56] | –
> 5000 | > 5000 | Cc1ccc(Nc2nc(Nc3cccc(C)c3)cc(N(C)C)n2)cc1 [Example 53] | –
> 5000 | – | Cc1ccc(Nc2cc(N3CCCCC3)nc(N3CCN(c4ncccn4)CC3)n2)cc1 [Example 37] | –
> 5000 | > 5000 | Cc1ccc(Nc2cc(N3CCCCC3)nc(N3Cc4cccc5cccc(c45)C3)n2)cc1 [Example 43] | –
> 5000 | – | Cc1ccc(Nc2cc(N(C)C)nc(N(C)c3ccc(C)cc3)n2)cc1 [Example 72] | –
> 5000 | – | Cc1ccc(Nc2cc(N3CCCCC3)nc(N3CCN(c4ccccn4)CC3)n2)cc1 [Example 30] | –
> 5000 | – | Cc1ccc(Nc2cc(N3CCCCC3)nc(N(C)CCc3c[nH]c4ccccc34)n2)cc1 [Example 11] | –
> 5000 | – | COc1cc2c(cc1OC)CN(c1nc(Nc3ccc(C)cc3)cc(N3CCCCC3)n1)CC2 [Example 42] | –
> 5000 | – | COc1cccc(Nc2cc(N3CCCCC3)nc(N(C)CCc3c[nH]c4ccccc34)n2)c1 [Example 17] | –
> 5000 | – | CCc1ccccc1N1CCN(c2nc(Nc3ccc(C)cc3)cc(N3CCCCC3)n2)CC1 [Example 26] | –
> 5000 | > 5000 | Cc1ccc(Nc2cc(N3CCCCC3)nc(N(C)CCc3c[nH]c4ccccc34)n2)cc1Cl [Example 16] | –
> 5000 | > 5000 | CN(C)c1cc(Nc2ccccc2)nc(Nc2ccccc2)n1 [Example 50] | –
> 5000 | > 5000 | CN(C)c1cc(Nc2ccc(C(C)(C)C)cc2)nc(Nc2ccccc2)n1 [Example 63] | –
> 5000 | – | Cc1ccc(Nc2cc(N3CCCCC3)nc(N(C)c3ccccc3)n2)cc1 [Example 6] | –

Source: patent publication US20040110821A1, “GAL3 receptor antagonists for the treatment of affective disorders” (priority 2002, published 2004)
